From EP4553077A1 (Kinoteck Therapeutics Co., Ltd, priority 2022, dated 2024)
Blank lines part the entries; values can stand above or below the molecule they belong to.

Assays:
[1] = biological target: Ba/F3-TEL-FGFR2 (Homo sapiens, UniProt P21802+P41212); test: Cell viability (proliferation inhibition) of Ba/F3 cells, CellTiter Glo; details: read-out: Ba/F3 cell FGFR2 (IC50 nM), 72 h
[2] = biological target: CYP2D6 (Homo sapiens, UniProt P10635); test: Cytochrome P450 inhibition in human liver microsomes
Chain of CYP2D6 (P10635 whole entry): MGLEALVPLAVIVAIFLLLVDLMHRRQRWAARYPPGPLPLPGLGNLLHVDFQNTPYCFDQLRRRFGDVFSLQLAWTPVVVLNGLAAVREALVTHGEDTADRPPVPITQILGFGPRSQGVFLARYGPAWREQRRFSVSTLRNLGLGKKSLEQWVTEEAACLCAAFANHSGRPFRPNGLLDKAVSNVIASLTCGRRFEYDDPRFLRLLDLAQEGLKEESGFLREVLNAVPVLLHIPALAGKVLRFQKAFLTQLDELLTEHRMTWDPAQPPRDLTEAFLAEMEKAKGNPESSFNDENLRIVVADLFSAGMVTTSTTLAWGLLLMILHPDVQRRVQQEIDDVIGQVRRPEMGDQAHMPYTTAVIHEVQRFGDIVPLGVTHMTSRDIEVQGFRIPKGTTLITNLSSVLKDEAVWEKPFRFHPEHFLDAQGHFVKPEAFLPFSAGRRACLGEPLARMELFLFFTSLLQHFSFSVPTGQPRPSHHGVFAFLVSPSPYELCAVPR
Experimental: (§3) Preparation of positive control inhibitor and compound working solution: 16 µL inhibitor stock solution or compound stock solution for each CYP subtype were taken and added to 24 µL DMSO. Then, they were diluted gradually three times with diluent to obtain different concentrations of test sample/positive control inhibitor working solution (7 concentrations each except for blank)
(§4) Preparation of liver microsomal working solution: 300 µL human liver microsomes (20.0 mg/mL) was taken and added to 29700 µL PBS and mixed well, and the concentration of the prepared human liver microsomal working solution was 0.200 mg/mL.
(§5) Preparation of 4 x NADPH working solution: A certain weight of NADPH tetrasodium salt was weighted and dissolved to a suitable volume of PBS to obtain NADPH working solution, with a concentration of 8.00 mM.
(§6) Preparation of test sample group working solution: The human liver microsomal working solution was divided into 96 well plates at 796 µL per well, and then 4 µL test sample working solution was added.
(§7) Preparation of positive control group working solution: The human liver microsomal working solution was divided into 96 well plates at 199 µL per well, and then 1 µL positive control inhibitor working solution was added.
(§8) Blank solvent working solution preparation: The human liver microsomal working solution was divided into 96 well plates at 199 µL per well, and then 1 µL DMSO was added.
(§9) (a) 30 µL test sample/positive control inhibitor working solution or 30 µL blank solvent working solution per well were transferred into a 96 well plate, and 15 µL substrate working solution of different enzyme subtypes transferred into each well, and mixed evenly. (b) The above incubation plates and 4 x NADPH working solution were preheated at 37 °C for 5 min. (c) 15 µL preheated 4 × NADPH working solution per well was transferred into the incubation plate, and the reaction initiated, and continued to be incubated at 37 °C. The incubation time is as follows:
(§10) (d) After the reaction time was reached, 180 µL termination solution was added to terminate the reaction. […] (f) After centrifugation, 80 µL supernatant was taken and added to 120 µL ultrapure water, and after it was mixed evenly, LC-MS/MS was used to analyze the metabolites of the probe substrate.

[3] = biological target: Ba/F3-TEL-FGFR3 (Homo sapiens, UniProt P22607+P41212); test: Cell viability (proliferation inhibition) of Ba/F3 cells, CellTiter Glo; details: read-out: Ba/F3 cell FGFR3 (IC50 nM), 72 h
Chain of Ba/F3-TEL-FGFR3 (P22607 472-761 limits assumed, one chain of several): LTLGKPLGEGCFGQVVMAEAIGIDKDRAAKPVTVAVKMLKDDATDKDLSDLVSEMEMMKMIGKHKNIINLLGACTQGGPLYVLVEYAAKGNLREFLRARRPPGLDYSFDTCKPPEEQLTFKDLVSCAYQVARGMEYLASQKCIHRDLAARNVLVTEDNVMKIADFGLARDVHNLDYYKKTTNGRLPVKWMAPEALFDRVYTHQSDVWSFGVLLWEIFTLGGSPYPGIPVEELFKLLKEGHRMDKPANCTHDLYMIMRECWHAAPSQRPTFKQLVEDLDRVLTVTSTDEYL

[4] = biological target: Ba/F3-TEL-FGFR1 (Homo sapiens, UniProt P11362+P41212); test: as above; details: read-out: Ba/F3 cell FGFR1 (IC50 nM), 72 h
Chain of Ba/F3-TEL-FGFR1 (P11362 478-767 limits assumed, one chain of several): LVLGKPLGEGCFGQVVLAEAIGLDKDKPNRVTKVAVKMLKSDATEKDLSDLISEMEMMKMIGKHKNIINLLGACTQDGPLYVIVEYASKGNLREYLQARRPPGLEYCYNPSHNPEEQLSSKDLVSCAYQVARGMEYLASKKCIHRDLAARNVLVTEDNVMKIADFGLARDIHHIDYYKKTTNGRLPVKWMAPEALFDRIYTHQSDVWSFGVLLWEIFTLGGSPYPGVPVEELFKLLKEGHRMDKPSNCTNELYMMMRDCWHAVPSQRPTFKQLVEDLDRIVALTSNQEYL

[5] = Pharmacokinetic test in rats; format: in vivo, male SD rats; details: rat, plasma, oral gavage administration, 10 mg/kg
Experimental: Rat pharmacokinetic experiments were performed using male SD rats, 180-220g, provided by Beijing Vital River Laboratory Animal Technology Co., Ltd. 3 rats that were fasted overnight were taken, and administered orally by gavage (10 mg/kg). Blood samples were collected before administration, as well as 5, 15, 30 min and 1, 2, 4, 6, 8, 24 h after administration; another 3 rats were taken and administered intravenously (1 mg/kg), blood samples were collected before administration, as well as 5, 15, 30 min and 1, 2, 4, 6, 8, 24 h after administration. Blood sample was centrifuged at 6800g, 2-8 °C for 6 min, and plasma was collected, and stored at -80 °C. Plasma of each time point was taken, 10 times the amount of 50% methanol acetonitrile solution containing internal standard was added, and mixed by vortex for 5 min, centrifuged at 18000 rpm at 4 °C for 10 min, and the supernatant was taken directly for LC-MS/MS analysis. The main pharmacokinetic parameters were analyzed using WinNonlin8.2 software for non compartmental model analysis. Table 3: pharmacokinetic test in rats results of test compounds

[6] = biological target: CYP3A4 (Homo sapiens, UniProt P08684); test: Cytochrome P450 inhibition in human liver microsomes
Chain of CYP3A4 (P08684 whole entry): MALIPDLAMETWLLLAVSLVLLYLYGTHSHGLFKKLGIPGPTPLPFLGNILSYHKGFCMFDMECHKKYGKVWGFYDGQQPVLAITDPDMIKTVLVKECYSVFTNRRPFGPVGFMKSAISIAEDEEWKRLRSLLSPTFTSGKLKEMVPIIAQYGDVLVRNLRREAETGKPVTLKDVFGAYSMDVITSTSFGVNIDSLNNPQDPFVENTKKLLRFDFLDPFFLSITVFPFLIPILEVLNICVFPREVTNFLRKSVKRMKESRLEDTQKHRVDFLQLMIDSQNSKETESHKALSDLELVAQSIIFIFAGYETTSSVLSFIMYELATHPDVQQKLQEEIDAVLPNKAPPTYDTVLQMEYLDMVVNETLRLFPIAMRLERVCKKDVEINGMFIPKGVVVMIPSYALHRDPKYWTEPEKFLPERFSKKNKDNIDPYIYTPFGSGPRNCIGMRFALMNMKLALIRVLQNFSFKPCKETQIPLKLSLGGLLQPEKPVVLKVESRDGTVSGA
Experimental: as §3, §4, §5, §6, §7, §8, §9, §10

[7] = biological target: T1, CYP1A2 (Homo sapiens, UniProt P05177); test: as above
T1 sequence (P05177 1-516): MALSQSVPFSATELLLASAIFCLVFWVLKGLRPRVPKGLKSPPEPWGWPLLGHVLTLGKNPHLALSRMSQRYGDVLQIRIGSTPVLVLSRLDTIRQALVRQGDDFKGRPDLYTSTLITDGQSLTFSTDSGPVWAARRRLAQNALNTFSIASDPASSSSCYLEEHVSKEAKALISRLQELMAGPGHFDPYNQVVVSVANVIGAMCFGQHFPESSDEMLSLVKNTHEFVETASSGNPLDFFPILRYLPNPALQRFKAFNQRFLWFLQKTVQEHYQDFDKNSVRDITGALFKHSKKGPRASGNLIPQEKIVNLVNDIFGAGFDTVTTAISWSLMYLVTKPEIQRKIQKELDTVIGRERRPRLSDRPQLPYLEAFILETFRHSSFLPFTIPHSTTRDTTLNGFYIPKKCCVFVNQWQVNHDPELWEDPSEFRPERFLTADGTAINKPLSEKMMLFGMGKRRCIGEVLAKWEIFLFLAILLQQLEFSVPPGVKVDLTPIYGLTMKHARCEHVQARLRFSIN
Experimental: as §3, §6, §7, §8
(§11) (a) 30 µL test sample/positive control inhibitor working solution or 30 µL blank solvent working solution per well were transferred into a 96 well plate, and 15 µL substrate working solution of different enzyme subtypes transferred into each well, and mixed evenly. (b) The above incubation plates and 4 x NADPH working solution were preheated at 37 °C for 5 min. (c) 15 µL preheated 4 × NADPH working solution per well was transferred into the incubation plate, and the reaction initiated, and continued to be incubated at 37 °C.
as §10

[8] = test system: SNU16 cells; test: Proliferation inhibition, CCK-8 colorimetric method; format: cell-based; details: Homo sapiens, SNU-16, 72 h
Experimental: (§1) CCK-8 (Bimake/B34304) colorimetric method was used to detect the in vitro proliferation inhibitory effect of compounds on suspended or adherent cells in this experiment. The specific experimental steps were as follows: • 1) Cell plating: SNU16 and A204 tumor cells (cells from Shanghai Institute of Organic Chemistry, Chinese Academy of Sciences) in the logarithmic growth phase were digested and centrifuged for trypan blue counting, and the cells were seeded into a transparent 96 well plate at a density of 4000 cells/100 µ 1/well. […] The test compound and control compound stock solution were diluted with the corresponding culture medium required for cell culture (with or without solvent DMSO) to obtain a series of working solutions, with concentrations of twice the final concentration. The solvent DMSO contents in each concentration group were consistent with that of the solvent control group. The final concentration of A204 cells started at 10 µM and was diluted twice.
(§2) Calculation of cell survival rate: Cell survival rate (%)=[(As-Ac)/(Ab-Ac)] × 100%] (As: experimental well; Ab: Solvent control well; Ac: Blank well).

[9] = test system: A204 cells; test: as above; format: cell-based; details: Homo sapiens, 72 h
Experimental: as §1, §2

[10] = biological target: CYP2C19 (Homo sapiens, UniProt P33261); test: Cytochrome P450 inhibition in human liver microsomes
Chain of CYP2C19 (P33261 whole entry): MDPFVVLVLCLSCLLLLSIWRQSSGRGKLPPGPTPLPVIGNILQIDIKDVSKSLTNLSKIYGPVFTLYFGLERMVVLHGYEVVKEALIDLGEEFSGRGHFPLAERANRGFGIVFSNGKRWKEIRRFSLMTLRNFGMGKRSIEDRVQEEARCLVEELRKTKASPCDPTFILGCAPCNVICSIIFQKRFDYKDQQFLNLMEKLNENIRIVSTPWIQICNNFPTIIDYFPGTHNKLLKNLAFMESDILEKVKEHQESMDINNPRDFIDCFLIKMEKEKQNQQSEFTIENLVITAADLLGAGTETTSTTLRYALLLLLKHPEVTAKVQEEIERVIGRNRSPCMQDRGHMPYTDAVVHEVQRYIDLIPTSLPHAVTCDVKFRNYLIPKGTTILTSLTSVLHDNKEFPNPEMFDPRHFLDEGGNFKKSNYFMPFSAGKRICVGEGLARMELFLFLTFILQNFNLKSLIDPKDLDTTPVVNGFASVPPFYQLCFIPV
Experimental: as §3, §6, §7, §8, §11, §10

[11] = biological target: CYP2C9 (Homo sapiens, UniProt P11712); test: as above
Chain of CYP2C9 (P11712 whole entry): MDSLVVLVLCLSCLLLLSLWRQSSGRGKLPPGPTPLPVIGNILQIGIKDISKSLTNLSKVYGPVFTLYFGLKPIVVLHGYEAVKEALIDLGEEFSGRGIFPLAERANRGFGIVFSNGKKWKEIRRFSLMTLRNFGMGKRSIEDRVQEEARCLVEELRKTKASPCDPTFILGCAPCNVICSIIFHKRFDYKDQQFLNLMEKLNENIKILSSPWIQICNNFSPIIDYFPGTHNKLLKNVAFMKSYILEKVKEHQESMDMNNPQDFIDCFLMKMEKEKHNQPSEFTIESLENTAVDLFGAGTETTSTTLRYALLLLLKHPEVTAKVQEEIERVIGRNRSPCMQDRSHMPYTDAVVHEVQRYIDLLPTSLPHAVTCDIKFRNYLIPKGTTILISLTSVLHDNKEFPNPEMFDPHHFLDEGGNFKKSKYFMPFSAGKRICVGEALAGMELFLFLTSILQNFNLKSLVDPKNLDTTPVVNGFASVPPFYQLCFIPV
Experimental: as §3, §6, §7, §8, §11, §10

[12] = Human liver microsomes stability test; format: in vitro ADME; details: human liver microsomes 0.5 mg/mL, compound 1.0 µM
Experimental: Human liver microsomes stability test was performed by co-incubating compounds with human liver microsomes in vitro. Firstly, a 10 mM stock solution of the test compound in DMSO solvent was prepared, and then the compound was diluted with methanol to a 0.15 mM working solution. A certain amount PBS, 12mM MgCl2, human liver microsomes (Corning), and compound working solution were mixed to achieve a compound concentration of 1.0 µM, a human liver microsome concentration of 0.5 mg/mL, and the MgCl2 concentration of 3 mM in the reaction system. A deep well plate was taken, 270 µL microsomal buffer mixture solution was added to each well, and then 30 µL preheated 10 mM NADPH solution was added to initiate the reaction, and it was incubated at 37 °C. At 0, 5, 15, 30, and 60 min of incubation, 200 µL methanol: acetonitrile = 1: 1 containing an internal standard was added to the corresponding well to terminate the reaction. After the reaction was terminated at the last 60 min, the deep well plate was subjected to vortex vibration for 5 min (600 rpm/min), and then centrifugated for 10 min. After centrifugation, the supernatant was taken, and purified water was added at a 1:1 ratio for LC-MS/MS detection, and the peak area ratio of the compound to the internal standard at each time point was obtained, and the peak area ratio of the compound at 5, 15, 30, and 60 min was compared with the peak area ratio at 0 minute to calculate the remaining percentage of the compound at each time point, and T1/2 was calculated using Graphpad 7 software. Table 2 Results of human liver microsomes stability test

[13] = Rat liver cells metabolic stability; format: in vitro ADME; details: rat liver cells 0.5 × 10^6 cells/mL
Experimental: Test compound and control drug verapamil powder were prepared into […] stock solution using DMSO, and they were diluted with 50% acetonitrile/50% water to 100 µM working solution before use.
• 1) 49.5 mL Williams E Medium and 0.5 mL glutaMAX were mixed as incubation medium. The liver cell resuscitation solution and incubation solution were preheated in a 37 °C water bath for at least 15 min before use. • 2) A tube of liver cells stored at ultra-low temperature was taken and ensured that they remain in a low-temperature frozen state before resuscitation. The liver cells were placed quickly in a 37 °C water bath and shaken gently until all ice crystals were dispersed. • 3) The contents of the liver cells tubes were poured into a centrifuge tube containing 50 mL of resuscitation medium, and they were centrifuged at 100 g for 10 min. After centrifugation, the resuscitation medium was aspirated, and sufficient incubation medium was added to obtain a cell suspension with a cell density of approximately 1.0 × 10^6 cells/mL. • 4) AO/PI staining was used to count liver cells and determine viable cell density, the survival rate of liver cells must be greater than 75%. The liver cell suspension was diluted with incubation medium to a viable cell density of 0.5 × 10^6 cells/mL.
• 1) 198 µL live cell suspension was transferred to a 96 well deep well plate, and the deep well plate was placed on a vortex and preheat in the incubator for 10 min. • 2) 2 µL 100 µM test compound or positive control compound was added to each well for reaction initiation, and the deep well plate was placed back on the incubator vortex. • 3) The incubation plate was placed into the incubator for incubation. 25 µL suspension was taken at 0.5, 15, 30, 60, 90, and 120 min, and 6-fold (150 µL) acetonitrile containing internal standard quencher (100 nM alprazolam, 200 nM caffeine, and 100 nM toluenesulfonylbutamide) was added to a new 96 well plate to terminate the reaction. The plate was vortexed for 5 min and centrifuged at 3220 rpm and 4 °C for 45 min to precipitate the protein. 100 µL of supernatant was transferred to the sample plate, and 100 µL pure water was added and mixed well for UPLC-MS/MS analysis. All incubation systems were conducted in a dual parallel manner.
All data was calculated using Microsoft Excel software. Peak area was detected by extracting ion chromatogram. In vitro half-life (T1/2) and in vitro clearance rate (in µL/min/10^6 cells) of the parent drug were detected by linearly fitting of the natural logarithm of the […] percentage of the parent drug versus time. Table 6 Results of rat liver cell stability test

Chain of Ba/F3-TEL-FGFR2 (P21802 481-770 limits assumed, one chain of several): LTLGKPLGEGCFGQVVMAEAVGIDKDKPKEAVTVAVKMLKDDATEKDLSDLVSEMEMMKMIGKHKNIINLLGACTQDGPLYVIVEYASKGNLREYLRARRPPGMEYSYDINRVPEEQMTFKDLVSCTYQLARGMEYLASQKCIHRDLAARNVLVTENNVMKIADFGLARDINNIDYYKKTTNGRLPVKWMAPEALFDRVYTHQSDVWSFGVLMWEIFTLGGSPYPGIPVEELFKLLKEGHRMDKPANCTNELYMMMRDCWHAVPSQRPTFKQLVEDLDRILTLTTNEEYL

IC50 [2]: 9520 nM
AUC(0-t) ([5]; male, SD): 778 ng·h/mL
Cmax ([5]; male, SD): 306 ng/mL
Tmax ([5]; male, SD): 25.2 min
half-life ([5]; male, SD): 79.2 min
IC50 [6]: 19200 nM
SMILES: C=C(C)C(=O)Nc1ccc(-c2c(-c3ccc(N=S4(=O)CCCC4)c(F)c3)c3c(N)ncnc3n2C)cc1 [Compound 33, N-(4-(4-amino-5-(3-fluoro-4-((1-oxotetrahydro-1 λ^6-thiophene-1-ylidene)amino)phenyl) -7-methyl-7H-pyrrolo [2,3-d]pyrimidin-6-yl)phenyl) methacrylamide]
IC50 [1]: 11.2 nM
IC50 [3]: 1290 nM
IC50 [4]: 2310 nM

SMILES: C=C(C)C(=O)Nc1ccc(-c2c(-c3ccc(N=S(=O)(CC)CC)cc3)c3c(N)ncnc3n2C)c(F)c1 [Compound 58]
IC50 [7]: > 10000 nM
IC50 [1]: 3 nM
IC50 [2]: 9810 nM
IC50 [3]: 442 nM
IC50 [8]: 9.52 nM
IC50 [9]: 1270 nM
IC50 [4]: 2030 nM
AUC(0-t) [5]: 1420 ng·h/mL
Cmax [5]: 604 ng/mL
Tmax [5]: 30 min
half-life [5]: 191 min
IC50 [10]: 5420 nM
IC50 [11]: 29700 nM
IC50 [6]: > 10000 nM

SMILES: C=C(C)C(=O)Nc1ccc(-c2c(-c3ccc(N=S4(=O)CCCCC4)cc3)c3c(N)ncnc3n2C)cc1 [Compound 4, N-(4-(4-amino-7-methyl-5-(4-(1-oxotetrahydro-2H-1λ^6-thiopyran-1-imino)phenyl) -7H-pyrrolo [2,3-d]pyrimidin-6-yl)phenyl) methacrylamide]
IC50 [1]: 9.9 nM
IC50 [3]: 3360 nM
CLint scaled at 1 µM [12]: 14.6 mL/min/kg
half-life at 1 µM [12]: 85.6 min
Remaining percentage of compound after 60 min of incubation (%) ([12]; 60 min): 61.6%
IC50 [4]: 2370 nM

Remaining percentage of compound after 60 min of incubation (%) [13]: 24.45%
hepatocyte CLint at 1 µM ([13]; rat liver cells (cryopreserved hepatocytes in suspension), read-out: in vitro CLint (µL/min/10^6 cells)): 48.4 µL/min/1e6 cells
half-life at 1 µM ([13]; rat liver cells (cryopreserved hepatocytes in suspension), read-out: in vitro t1/2): 28.6 min
IC50 [8]: 2.4 nM
SMILES: C=C(C)C(=O)Nc1ccc(-c2c(-c3ccc(N=S4(=O)CCCC4)c(F)c3)c3c(N)ncnc3n2C)c(F)c1 [Compound 23, N-(4-(4-amino-5-(3-fluoro-4-((1-oxotetrahydro-1 λ^6-thiophene-1-ylidene)amino)phenyl) -7-methyl-7H-pyrrolo [2,3-d]pyrimidin-6-yl) -3-fluorophenyl) methacrylamide]
IC50 [1]: 0.7 nM
IC50 [9]: 618 nM
IC50 [4]: 568 nM

SMILES: C=C(C)C(=O)Nc1ccc(-c2c(-c3ccc(N=S4(=O)CCC4)c(F)c3)c3c(N)ncnc3n2C)cc1 [Compound 56]
IC50 [1]: 12.6 nM
IC50 [2]: 5540 nM
IC50 [6]: 13200 nM

IC50 [2]: 24600 nM
IC50 [6]: 13500 nM
SMILES: C=C(C)C(=O)Nc1ccc(-c2c(-c3ccc(N=S(=O)(CC)CC)c(F)c3)c3c(N)ncnc3n2C)cc1 [Compound 9, N-(4-(4-amino-5-(4-(diethyl (oxo) 1 λ^6-sulfanylidene) -3-fluorophenyl) -7-methyl 7H-pyrrolo [2,3-d]pyrimidin-6-yl) - phenyl) methacrylamide]
IC50 [1]: 14.9 nM

SMILES: [2H]C([2H])([2H])n1c(-c2ccc(NC(=O)C(=C)C)cc2F)c(-c2ccc(N=S3(=O)CCCC3)cc2)c2c(N)ncnc21 [Compound 83, N-(4-(4-amino-7-(methyl-d3)-5-(4-(1-oxotetrahydro-1 λ^6-thiophene-1-imino)phenyl)-7H-pyrrolo[2,3-d]pyrimidin-6-yl)-3-fluorophenyl)methacrylamide]
IC50 [7]: > 10000 nM
IC50 [1]: 1.1 nM
IC50 [2]: 8770 nM
IC50 [3]: 319 nM
hepatocyte CLint ([13]; hepatocytes, read-out: in vitro CLint (µL/min/10^6 cells)): 37.3 µL/min/1e6 cells
half-life ([13]; hepatocytes, read-out: in vitro t1/2): 37.1 min
Remaining percentage of compound after 60 min of incubation (%) [13]: 35.86%
IC50 [4]: 661 nM
AUC(0-t) [5]: 1480 ng·h/mL
Cmax [5]: 414 ng/mL
Tmax [5]: 19.8 min
half-life [5]: 112 min
IC50 [10]: 14100 nM
IC50 [11]: 14400 nM
IC50 [6]: 11600 nM
